Patent publication US9770421B2, “Uses for idebenone and related benzoquinones in metabolic disorders and other PPAR α/γ related diseases and conditions” (INDANIO BIOSCIENCE INC., priority 2013, dated 2017)
“Also recorded” adds a separate entry of the source.

How the values were obtained:
[1] = target: T1, hPPARγ (Homo sapiens, UniProt P37231); assay: HEK293 cell culture luciferase reporter assay, hPPARγ
T1 sequence (P37231 188-477 isoform P37231-2): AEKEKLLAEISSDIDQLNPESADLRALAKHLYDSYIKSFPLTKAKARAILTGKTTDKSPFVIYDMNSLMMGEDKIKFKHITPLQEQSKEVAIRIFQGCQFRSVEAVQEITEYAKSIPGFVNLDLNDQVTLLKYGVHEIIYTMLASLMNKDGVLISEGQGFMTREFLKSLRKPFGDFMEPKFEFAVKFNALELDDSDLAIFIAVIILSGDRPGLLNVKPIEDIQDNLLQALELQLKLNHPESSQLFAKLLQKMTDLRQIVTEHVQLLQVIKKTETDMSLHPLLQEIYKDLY

[2] = target: T2, hPPARδ/β (Homo sapiens, UniProt Q03181); assay: HEK293 cell culture luciferase reporter assay, hPPARδ/β; details: HEK293
T2 sequence (Q03181 143-441): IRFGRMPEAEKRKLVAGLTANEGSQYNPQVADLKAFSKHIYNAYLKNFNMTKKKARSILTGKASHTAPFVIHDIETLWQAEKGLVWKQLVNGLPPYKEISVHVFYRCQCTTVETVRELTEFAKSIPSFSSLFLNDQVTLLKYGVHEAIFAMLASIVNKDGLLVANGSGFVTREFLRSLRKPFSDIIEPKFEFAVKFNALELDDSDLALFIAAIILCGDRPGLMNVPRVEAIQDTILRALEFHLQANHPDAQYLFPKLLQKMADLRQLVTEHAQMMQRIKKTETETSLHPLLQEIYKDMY

[3] = target: T3, PPARα (Homo sapiens, UniProt Q07869); assay: PPARα ligand trap zebrafish GFP reporter assay; assay type: in vivo; parameters: pLT PPARα (aa 178-468) and pLT PPAR γ (aa 188-477) lines; expressed in transfected cells; host or cells: transgenic zebrafish embryos (ligand-trap line); details: transgenic embryos, 48 hpf
T3 sequence (Q07869 178-468): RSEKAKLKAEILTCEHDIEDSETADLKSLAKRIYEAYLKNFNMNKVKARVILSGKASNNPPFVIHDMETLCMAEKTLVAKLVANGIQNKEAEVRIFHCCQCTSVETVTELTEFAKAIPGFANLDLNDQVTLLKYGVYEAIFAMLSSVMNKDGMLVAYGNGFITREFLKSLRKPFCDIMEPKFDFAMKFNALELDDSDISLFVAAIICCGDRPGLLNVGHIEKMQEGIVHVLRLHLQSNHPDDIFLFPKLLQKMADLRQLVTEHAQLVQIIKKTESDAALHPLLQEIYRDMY
Description: Zebrafish were maintained at 28.5° C. on a 14/10 hour light/dark cycle and staged according to hours (h) or days (d) postfertilization. To generate pLT PPARα (aa 178-468) and pLT PPAR γ (aa 188-477) lines, plasmids were pre-digested with I-SceI (0.8 μg DNA, 1 μl I-SceI (New England Biolabs) 2 μl 10×I-SceI buffer, 1 μl BSA) for 20 min at 37° C. Digested DNA was adjusted with 0.1% phenol red. 4.6 nl of DNA solution was injected into the blastomeres of early one-cell stage embryos.
F0 fish were crossed with WT fish to identify germ-line transformed animals, as determined by agonist treatments and GFP expression. F1 progeny showing strong and consistent GFP responses were selected for F2 homozygote production. To avoid reporter GFP silencing of stable transgenic LT lines, homozygous fish showing strong and consistent GFP responses were selected for continued propagation of next generations.
PPARγ ligand trap zebrafish screens were performed under optimized conditions in 96-well format using the ImageXpress Velos Laser Scanning Cytometer. 1 or 2 dpf embryos were heat induced (28→37° C.) for 30 minutes, de-chorionated and then arrayed in 96-well plates (5 per well). […] Embryos were incubated at 28° C. for 14 h, anesthetized with Tricaine (Sigma, Cat. # A-5040) and then analyzed for GFP fluorescence using the ImageXpress Velos Laser Scanning Cytometer.

[4] = system: C57Bl/6 db/db mice; assay: db/db mouse study (NAFLD features); assay type: in vivo; details: for Decrease in liver weight in comparison to vehicle treated mice: 3 weeks
Description: Db/db study: Forty male C57Bl/6 db/db mice (called B6.BKS(D)-Lepr db/J) were ordered from Jackson Laboratories (#000697) at 7 weeks of age. Mice were housed individually with free access to food (2016 Teklad Global 16% Protein Rodent Diet) and water on a 14 hour light/dark cycle (6 a.m. to 8 p.m. light). […] Food was exchanged on a daily bases. Harlan corn cob bedding was provided and was changed every week or as needed. Following a 1 week acclimation, 32 mice were chosen based on desired body weight range. Remaining mice were euthanized. Mice were randomized by body weight into four treatment groups (n=8) by body weight. Dosing occurred for 21 days. Mice were euthanized by CO2 euthanasia and livers were fixed in neutral buffered formalin (NBF) for 24 h, followed by a one day fixation in 30% Sucrose and 10% Sucrose. Oil O Red staining was performed through the Pathology Research Program at the University Health Network in Toronto [46]. [table] 100 mg of db/db livers were homogenized in RIPA buffer and protein concentration was quantified using a BCA protein assay kit (Cell signalling #7780) followed by measurement of ‘Thiobarbituric Acid Reactive Substances’ (TBARS) using a TBARS assay kit (Cayman Chemicals #10009055). Total RNA was extracted from 100 mg of db/db livers using RNA STAT-60 (Tel-Test, Inc.), treated with DNase I (RNase-free, Roche), and reverse transcribed into cDNA with random hexamers using the High Capacity Reverse transcription system (Applied Biosystems, ABI). Primers used are shown below and were validated as previously described. Real-time QPCR reactions were performed on an ABI 7900 in 384-well plates containing 12.5 ng cDNA, 150 nM of each primer, and 5 μl 2×SYBR Green PCR Master Mix (ABI) in a 10 μl total volume. Relative mRNA levels were calculated using the comparative Ct method normalized to cyclophilin mRNA.

Structure (SMILES): COC1=C(OC)C(=O)C(CCCCCCCCCCO)=C(C)C1=O [Idebenone, 2-(10-hydroxydecyl)-5,6-dimethoxy-3-methyl-2,5-cyclohexadiene-1,4-dione]
- EC50 [1]: 2500 nM
- Maximum activation level versus full agonist, PPARγ ([1]; HEK293, full agonist rosiglitazone): significantly lower than those obtained using the full agonists
- Response of PPARδ/β in cultured cells [2]: no response
- GFP response of PPARα LT line [3]: robust response; also recorded: dual agonists for PPARα and PPARγ
- Histological NAFLD features of liver ([4]; 3 weeks in food): reversed these histological NAFLD
- Decrease in liver weight in comparison to vehicle treated mice ([4]; 900 mpk in food): 3%
- Decrease in liver weight in comparison to vehicle treated mice ([4]; 1800 mpk in food): 6.5%
- Liver ADFP mRNA expression (QPCR) ([4]; 21 days): down regulated
- Liver PLIN4 mRNA expression (QPCR) ([4]; 21 days): down regulated
- Liver lipid content (Oil Red O staining) ([4]; 21 days, 900/1800 mpk idebenone, 10 mpk rosiglitazone): significant dose-dependent decrease in fat; also recorded: significant dose dependent decrease in fat
- Liver lipid peroxides (TBARS) ([4]; liver homogenates, 21 days): reduced
